In brackets after ≈: the same amount, converted by molar mass.
What was measured:
H9 [1] = experiment: Compound was tested for cytotoxic activity against acutely infected H9 cell growth.; assay type: functional, cell-based; settings: Homo sapiens
H9 [2] = experiment: Concentration which inhibited HIV-1 replication by 50% in acutely infected H9 cells; assay type: functional, cell-based; settings: Homo sapiens

| EC50 (H9 [2]) | SMILES | IC50 (H9 [1]) |
| --- | --- | --- |
| 0.25 µg/mL (≈ 0.73 µM) | COc1ccc(C[C@@H]2COC(=O)[C@H]2Cc2ccc(O)cc2)cc1OC | 0.8 µg/mL (≈ 2.34 µM) |
| 1.5 µg/mL (≈ 4.19 µM) | COc1ccc(C[C@@H]2COC(=O)[C@H]2Cc2ccc(O)c(O)c2)cc1OC | 6 µg/mL (≈ 16.7 µM) |
| 1.8 µg/mL (≈ 5.26 µM) | COc1ccc(C[C@@H]2COC(=O)[C@H]2Cc2cccc(O)c2)cc1OC | 4 µg/mL (≈ 11.7 µM) |

The remaining lines, values behind:

| SMILES | EC50 (H9 [2]) | IC50 (H9 [1]) |
| --- | --- | --- |
| COc1ccc(C[C@@H]2COC(=O)[C@H]2Cc2ccccc2)cc1OC | 2.2 µg/mL (≈ 6.74 µM) | 20 µg/mL (≈ 61.3 µM) |
| COc1ccc(C[C@@H]2COC(=O)C2)cc1OC | 34 µg/mL (≈ 144 µM) | 100 µg/mL (≈ 423 µM) |
| COc1cc(C[C@@H]2C(=O)OC[C@H]2Cc2ccc(OC)c(OC)c2)ccc1O | 0.16 µg/mL (≈ 0.43 µM) | 0.8 µg/mL (≈ 2.15 µM) |
